Laboratory results taken from ChEMBL document CHEMBL1126193, “Omega-[(omega-arylalkyl)thienyl]alkanoic acids: from specific LTA4 hydrolase inhibitors to LTB4 receptor antagonists” (J Med Chem, 1992).
pIC50: −log10 of the molar value.

Legend:
[1] = system: Leukotriene B4 receptor 1 (Cavia porcellus); test: Percent inhibition of [3H]-LTB4 binding to guinea pig spleen Leukotriene B4 receptor at the concentration of 10e-5 M
[2] = system: Leukotriene A-4 hydrolase (Sus scrofa); test: Tested for 50% inhibition of LTA4 hydrolase at 2*10e-5M concentration in porcine leukocyte homogenates
[3] = system: Leukotriene A-4 hydrolase (Sus scrofa); test: Tested for Percentage inhibition of LTA4 hydrolase at 2*10e-5M concentration in porcine leukocyte homogenates
[4] = compound was tested for 50% inhibition of LTA4 hydrolase at 2*10e-5M concentration in porcine leukocyte homogenates; assay type: tissue-based, Sus scrofa

Compound	inhibition [1] [%]	inhibition [2] [%]	inhibition [3] [%]	pIC50 [4]
O=C(O)CCCCc1cc(CCCc2ccccc2)cs1	35	0	–	–
O=C(O)CCCCCCc1sccc1Cc1ccccc1	15	0	–	–
Cc1cc(CCCCCCC(=O)O)c(CCCc2ccccc2)s1	–	–	0	–
O=C(O)CCCCCCc1sccc1CCCc1ccccc1	–	0	–	–
O=C(O)CCCCCCc1ccsc1CCCc1ccc(Cl)cc1	–	–	24	–
O=C(O)CCCCCCc1ccsc1CCc1ccccc1	38	0	–	–
O=C(O)CCCCCCc1csc(CCCc2ccccc2)c1	10	100	–	5.82
Cc1cc(C(=O)CCCCCC(=O)O)c(CCCc2ccccc2)s1	51	–	–	–
O=C(O)CCCCCCc1csc(CCCc2ccc(Cl)cc2)c1	–	–	73	–
O=C(O)CCCCCCc1cc(CCCCCc2ccccc2)cs1	31	49	–	–
O=C(O)CCCCCCc1csc(Cc2ccccc2)c1	–	68	–	–
O=C(O)CCCCCCc1csc(CCc2ccccc2)c1	–	49	–	–
O=C(O)CCCCCCc1cc(-c2ccccc2)cs1	0	25	–	–
COc1ccc(CCCc2cc(CCCCCCC(=O)O)cs2)cc1	–	–	68	–
O=C(O)CCCCCCc1sccc1CCCCCc1ccccc1	39	9	–	–
O=C(O)CCCCCCc1ccsc1C(=O)CCc1ccccc1	17	–	–	–
O=C(O)CCCCc1sccc1CCCc1ccccc1	–	0	–	–
O=C(O)CCCCCCc1ccc(CCCc2ccccc2)s1	–	84	–	5.54
O=C(O)CCCCCC(=O)c1sccc1CCCc1ccccc1	59	–	–	–
O=C(O)CCCCCCc1cc(CCCc2ccccc2)cs1	38	42	–	–
O=C(O)CCCCCc1cc(CCCc2ccccc2)cs1	36	32	–	–
O=C(O)CCCCCCc1csc(CCCc2ccc(O)cc2)c1	–	–	100	–
O=C(O)CCCCCCc1ccsc1CCCc1ccccc1	–	0	–	–
O=C(O)CCCCCCc1cc(Cc2ccccc2)cs1	33	70	–	5.02
O=C(O)CCCCCCc1sc(-c2ccccc2)cc1CCCc1ccccc1	–	–	0	–
